Results published in publication PMC5991783, “Discovery and Optimization of Indolyl-Containing 4-Hydroxy-2-Pyridone Type II DNA Topoisomerase Inhibitors Active against Multidrug Resistant Gram-negative Bacteria” (Journal of Medicinal Chemistry, 2018).

Columns and labels:
[1] = tested on: E. coli ATCC 25922; assay: MIC, wild-type E. coli ATCC 25922; assay type: cell-based, Escherichia coli; settings: Escherichia coli, ATCC25922; E. coli ATCC 25922; read-out: MIC E. coli^WT
[2] = tested on: E. coli SKM18; assay: microbe, parasite or virus in culture; assay type: cell-based, Escherichia coli; settings: Escherichia coli, SKM18, read-out: MIC E. coli^R1, E. coli SKM18
[3] = tested on: E. coli ELZ4251; assay: MIC, clinical isolate E. coli ELZ4251; assay type: cell-based; settings: Escherichia coli, read-out: MIC E. coli^R2
[4] = tested on: Acinetobacter baumannii ATCC BAA-747; assay: MIC, wild-type A. baumannii; assay type: cell-based; settings: Acinetobacter baumannii, ATCCBAA747; A. baumannii ATCC BAA-747; read-out: MIC A. bau^WT
[5] = tested on: A. baumannii MMX2240; assay: MIC, fluoroquinolone resistant A. baumannii; assay type: cell-based, Acinetobacter baumannii; settings: Acinetobacter baumannii
[6] = tested on: Klebsiella pneumoniae ATCC 35657; assay: MIC, wild-type K. pneumoniae; assay type: cell-based; settings: Klebsiella pneumoniae, ATCC35657; K. pneumoniae ATCC 35657; read-out: MIC K. pneu^WT
[7] = target: E. coli DNA gyrase (Escherichia coli, UniProt P0AES4+P0AES6); assay: biochemical; settings: E. coli DNA gyrase IC50
E. coli DNA gyrase, sequence (P0AES4 whole entry, one chain of several): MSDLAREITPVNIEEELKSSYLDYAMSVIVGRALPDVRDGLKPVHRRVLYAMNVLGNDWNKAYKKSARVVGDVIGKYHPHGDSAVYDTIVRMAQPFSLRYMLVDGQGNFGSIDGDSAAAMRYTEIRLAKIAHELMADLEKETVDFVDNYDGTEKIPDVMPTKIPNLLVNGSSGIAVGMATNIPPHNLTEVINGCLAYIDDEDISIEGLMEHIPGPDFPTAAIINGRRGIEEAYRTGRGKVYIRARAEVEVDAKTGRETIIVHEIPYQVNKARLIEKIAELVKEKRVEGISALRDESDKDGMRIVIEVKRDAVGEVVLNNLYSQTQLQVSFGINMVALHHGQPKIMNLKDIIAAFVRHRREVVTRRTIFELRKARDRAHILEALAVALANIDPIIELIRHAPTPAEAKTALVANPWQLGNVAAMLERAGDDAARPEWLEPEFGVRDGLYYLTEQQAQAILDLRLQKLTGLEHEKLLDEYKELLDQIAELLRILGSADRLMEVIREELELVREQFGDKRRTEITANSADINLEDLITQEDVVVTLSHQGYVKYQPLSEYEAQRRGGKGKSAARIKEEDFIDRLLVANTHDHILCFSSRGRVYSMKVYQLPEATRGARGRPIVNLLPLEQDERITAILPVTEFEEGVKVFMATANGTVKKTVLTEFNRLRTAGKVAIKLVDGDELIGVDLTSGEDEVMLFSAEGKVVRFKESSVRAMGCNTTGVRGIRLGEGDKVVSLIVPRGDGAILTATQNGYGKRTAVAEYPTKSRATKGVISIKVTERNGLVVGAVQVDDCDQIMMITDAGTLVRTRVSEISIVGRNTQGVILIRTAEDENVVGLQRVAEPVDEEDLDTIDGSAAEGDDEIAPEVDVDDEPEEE

[8] = target: human topoisomerase II (Homo sapiens, UniProt P11388); assay: Human topoisomerase II decatenation assay; assay type: biochemical; settings: Supplemental Table 1; read-out: Human Topo II IC50
human topoisomerase II, sequence (P11388 whole entry): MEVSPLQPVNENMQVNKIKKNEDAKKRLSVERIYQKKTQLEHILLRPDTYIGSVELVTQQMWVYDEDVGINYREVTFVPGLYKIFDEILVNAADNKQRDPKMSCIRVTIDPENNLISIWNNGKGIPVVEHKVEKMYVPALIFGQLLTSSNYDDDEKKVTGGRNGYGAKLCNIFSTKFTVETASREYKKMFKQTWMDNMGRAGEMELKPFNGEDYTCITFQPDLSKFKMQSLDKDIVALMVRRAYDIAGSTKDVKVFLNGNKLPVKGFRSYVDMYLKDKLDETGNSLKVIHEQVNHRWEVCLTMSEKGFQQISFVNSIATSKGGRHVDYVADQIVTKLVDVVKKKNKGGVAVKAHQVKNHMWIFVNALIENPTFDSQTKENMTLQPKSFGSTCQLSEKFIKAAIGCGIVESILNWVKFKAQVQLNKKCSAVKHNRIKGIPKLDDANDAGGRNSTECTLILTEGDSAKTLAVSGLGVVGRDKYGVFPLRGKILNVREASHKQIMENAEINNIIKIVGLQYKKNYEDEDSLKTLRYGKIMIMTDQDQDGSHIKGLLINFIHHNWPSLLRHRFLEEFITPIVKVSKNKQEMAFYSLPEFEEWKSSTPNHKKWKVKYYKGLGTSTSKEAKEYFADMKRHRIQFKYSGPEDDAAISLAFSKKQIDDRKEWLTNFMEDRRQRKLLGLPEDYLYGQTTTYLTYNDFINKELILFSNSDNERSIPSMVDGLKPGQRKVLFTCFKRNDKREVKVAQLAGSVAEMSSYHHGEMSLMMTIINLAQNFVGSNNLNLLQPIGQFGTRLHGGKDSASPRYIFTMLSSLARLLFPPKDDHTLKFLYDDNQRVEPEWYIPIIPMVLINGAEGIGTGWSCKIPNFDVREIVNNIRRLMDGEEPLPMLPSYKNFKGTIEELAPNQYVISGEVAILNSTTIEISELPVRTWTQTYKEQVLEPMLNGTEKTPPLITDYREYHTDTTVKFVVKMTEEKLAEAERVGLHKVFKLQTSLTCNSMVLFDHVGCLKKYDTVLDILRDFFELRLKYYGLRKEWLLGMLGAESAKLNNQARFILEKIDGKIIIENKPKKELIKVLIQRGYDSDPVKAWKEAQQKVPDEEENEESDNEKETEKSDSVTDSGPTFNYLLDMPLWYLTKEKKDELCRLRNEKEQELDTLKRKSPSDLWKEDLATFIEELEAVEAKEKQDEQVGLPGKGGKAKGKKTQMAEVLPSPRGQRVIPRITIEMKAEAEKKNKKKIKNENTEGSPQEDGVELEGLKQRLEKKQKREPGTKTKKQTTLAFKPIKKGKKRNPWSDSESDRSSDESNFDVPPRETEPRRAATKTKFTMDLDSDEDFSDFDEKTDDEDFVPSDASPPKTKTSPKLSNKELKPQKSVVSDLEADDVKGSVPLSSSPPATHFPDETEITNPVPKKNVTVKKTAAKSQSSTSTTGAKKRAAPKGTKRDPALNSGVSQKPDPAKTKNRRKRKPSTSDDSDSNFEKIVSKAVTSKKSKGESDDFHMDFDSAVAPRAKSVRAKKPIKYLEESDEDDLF

[9] = tested on: panel of 12 E. coli isolates; assay: Susceptibility testing, 12 E. coli isolates; assay type: cell-based, Escherichia coli; settings: 12 strains
[10] = tested on: panel of 12 A. baumannii isolates; assay: Susceptibility testing, 12 A. baumannii isolates; assay type: cell-based, Acinetobacter baumannii; settings: 12 strains
[11] = tested on: E. coli^WT (ATCC 25922); assay: Mouse septicemia model; assay type: in vivo, CD-1 mice; settings: Mus musculus, iv, 96 h; read-out: survival
[12] = Pharmacokinetics in CD-1 mice; settings: CD-1, mouse, plasma
[13] = Mouse plasma protein binding, equilibrium dialysis

With `CCC(C)NCc1cc2cc3c(cc2n1C)OCCc1c-3[nH]c(=O)c(C(=O)O)c1O.Cl` (stereo not drawn) [Compound 6o, 10-((sec-Butylamino)methyl)-4-hydroxy-9-methyl-2-oxo-2,5,6,9-tetrahydro-1H-pyrido[2′,3′:4,5]oxepino[3,2-f]indole-3-carboxylic Acid Hydrochloride] as the molecule, how does the MIC [1] read?
Its MIC is 0.78 µg/mL.

What about the MIC [2] of the same molecule?
Its MIC is 0.78 µg/mL.

What about the MIC [3] of the same molecule?
The MIC was 2 µg/mL.

And the MIC [4]?
The MIC was 1.6 µg/mL.

What about the MIC [5] of the same molecule?
Its MIC is 0.78 µg/mL.

What about the MIC [6] of the same molecule?
The MIC was 1 µg/mL.

And the IC50 [7]?
Its IC50 is 110 nM.

What about the IC50 [8] of the same molecule?
The IC50 was greater than 100 µM.

And the “E. coli MIC90” value ([9]; Mueller Hinton II broth)?
Its value is 1 µg/mL.

What about the MIC90 ([9]; Escherichia coli, Mueller Hinton II broth, read-out: E. coli MIC90) of the same molecule?
The MIC90 was 0.5 to 1 µg/mL.

And the MIC50 ([9]; Escherichia coli)?
Its MIC50 is 1 µg/mL.

What about the MIC ([9]; Escherichia coli, read-out: E. coli MIC range) of the same molecule?
The MIC was 0.12 to 1 µg/mL.

What about the “A. baumannii MIC90” value ([10]; Mueller Hinton II broth) of the same molecule?
Its value is 8 µg/mL.

And the MIC90 ([10]; Acinetobacter baumannii, Mueller Hinton II broth, read-out: A. baumannii MIC90)?
The MIC90 was 8 to 16 µg/mL.

What about the MIC50 ([10]; Acinetobacter baumannii) of the same molecule?
Its MIC50 is 2 µg/mL.

What about the responders at 20 mg/kg [11] of the same molecule?
The responders at 20 mg/kg was 100%.

What about the AUC(0-t) ([12]; iv, 10 mg/kg, pH 8) of the same molecule?
The AUC(0-t) was 3440 ng·h/mL.

And the clearance ([12]; iv, 10 mg/kg, pH 8)?
Its clearance is 48 mL/min/kg.

What about the half-life ([12]; iv, 10 mg/kg, pH 8) of the same molecule?
The half-life was 126 min.

And the bioavailability ([12]; po)?
Its bioavailability is 41%.

What about the fraction unbound at 1 μM [13] of the same molecule?
Its fraction unbound at 1 μM is 0.23.
